Patent publication US9012655B2, “Antimicrobial/adjuvant compounds and methods” (Denouamed, Inc., priority 2011, dated 2015)
In brackets after ≈: the same amount, converted by molar mass.

Tests used:
Format in all cases: cell-based
Bacillus cereus NCTC6349 = test: MIC panel of challenge pathogens (CLSI); settings: Bacillus cereus NCTC6349; for MIC: read-out: 100% inhibition; for MIC50: read-out: MIC50 (50%); for MIC80: read-out: MIC80 (80%)
How it was run: (§1)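 Broth microdilution per CLSI guidelines. Final inoculum 2-8×10^5 CFU/ml, compounds serially two-fold diluted from 128 mg/L top concentration. Incubated in the dark at 30-37° C for 24-48 h, aerobic or anaerobic as appropriate. MIC read visually as 100% inhibition endpoint; MIC50 and MIC80 also reported.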

[1] = test system: Enterococcus faecalis ATCC29212; test: MIC panel of challenge pathogens (CLSI); settings: Enterococcus faecalis ATCC29212; for MIC: read-out: 100% inhibition; for MIC50: read-out: MIC50 (50%); for MIC80: read-out: MIC80 (80%)
How it was run: as §1

[2] = test system: Enterococcus faecium ATCC700221; test: MIC panel of challenge pathogens (CLSI); settings: Enterococcus faecium ATCC700221; for MIC: read-out: 100% inhibition; for MIC50: read-out: MIC50 (50%); for MIC80: read-out: MIC80 (80%)
How it was run: as §1

[3] = test system: Staphylococcus aureus ATCC43300; test: MIC panel of challenge pathogens (CLSI); settings: Staphylococcus aureus ATCC43300; for MIC: read-out: 100% inhibition; for MIC50: read-out: MIC50 (50%); for MIC80: read-out: MIC80 (80%)
How it was run: as §1

[4] = test system: Staphylococcus aureus AUR59 7005; test: MIC panel of challenge pathogens (CLSI); settings: AUR597005, Staphylococcus aureus AUR59 7005; for MIC: read-out: 100% inhibition; for MIC50: read-out: MIC50 (50%); for MIC80: read-out: MIC80 (80%)
How it was run: as §1

[5] = test system: Staphylococcus aureus AUR60 7005; test: MIC panel of challenge pathogens (CLSI); settings: AUR607005, Staphylococcus aureus AUR60 7005; for MIC: read-out: 100% inhibition; for MIC50: read-out: MIC50 (50%); for MIC80: read-out: MIC80 (80%)
How it was run: as §1

[6] = test system: Staphylococcus aureus EUP MRSA002; test: MIC panel of challenge pathogens (CLSI); settings: EUPMRSA002, Staphylococcus aureus EUP MRSA002; for MIC: read-out: 100% inhibition; for MIC50: read-out: MIC50 (50%); for MIC80: read-out: MIC80 (80%)
How it was run: as §1

[7] = test system: Staphylococcus aureus NRS1 (ATCC700699); test: MIC panel of challenge pathogens (CLSI); settings: Staphylococcus aureus NRS1 (ATCC700699); for MIC: read-out: 100% inhibition; for MIC50: read-out: MIC50 (50%); for MIC80: read-out: MIC80 (80%)
How it was run: as §1

[8] = test system: Staphylococcus epidermidis NRS122; test: MIC panel of challenge pathogens (CLSI); settings: Staphylococcus epidermidis NRS122; for MIC: read-out: 100% inhibition; for MIC50: read-out: MIC50 (50%); for MIC80: read-out: MIC80 (80%)
How it was run: as §1

[9] = test system: Staphylococcus epidermidis NRS7; test: MIC panel of challenge pathogens (CLSI); settings: Staphylococcus epidermidis NRS7; for MIC: read-out: 100% inhibition; for MIC50: read-out: MIC50 (50%); for MIC80: read-out: MIC80 (80%)
How it was run: as §1

[10] = test system: Staphylococcus aureus EUP MRSA002; test: MIC panel of challenge pathogens (CLSI), EUP MRSA002; settings: EUPMRSA002, Staphylococcus aureus EUP MRSA002; for MIC: read-out: 100% inhibition; for MIC50: read-out: MIC50 (50%); for MIC80: read-out: MIC80 (80%)
Method: The inocula for each bacterial strain were prepared by picking 5-10 distinct colonies from the culture plates and suspending them in the appropriate broth as per Clinical and Laboratory Standards Institute (CLSI) guidelines M07-A8, M24-A or M11-A7 as appropriate. The inoculum was resuspended by vigorous shaking on a vortex mixer for 15 s. The turbidity was then adjusted to McFarland standard 0.5 ([…]). The inoculum was further diluted in the appropriate media for MIC tests to give a final inoculum in each well of 2-8×10^5 CFU/ml. MICs were tested in the appropriate broth in accordance with the appropriate CLSI guidelines.
A stock solution of each compound was prepared at a concentration of 1.28 g/L in DMSO. The stock was further diluted in the appropriate media to give a top starting concentration of 128 mg/L in the assay. 100 μL of the appropriate media, as per CLSI guidelines, was dispensed into each well in columns 2-12. 200 μL of the each compound solution (at 256 mg/L) was dispensed into each well in column 1. 100 μL aliquots were pipetted from column 1 wells and dispensed into column 2 with a multichannel pipette (±2% coefficient of variation) thus diluting two-fold. 100 μL samples were then pipetted from column 2 wells and dispensed into column 3. The process was repeated through to column 10. The final 100 μL of diluted drug from column 10 was then discarded. Row 11 acted as a positive control (no compound, but organisms added), Row 12 acted as a negative control (no compound, and no organisms added).
100 μL of the appropriate inoculum suspension in the appropriate media, as per CLSI guidelines, was added to the appropriate wells. […] All plates were incubated in the dark under aerobic or anaerobic conditions at 30-37° C. for 24-48 hours, according to the appropriate CLSI guideline. Plates were read visually 24-48 hours post inoculation. Endpoints of 100% inhibition were determined (CLSI interpretation endpoints following visual examination).
MIC50, MIC80, and 100% inhibition results are reported below in μg/mL in the following Tables, indicating each compound tested against a given species and strain: […]

Row | Structure (SMILES) | MIC (Bacillus cereus NCTC6349) [mg/L] | MIC50 (Bacillus cereus NCTC6349) [mg/L] | MIC80 (Bacillus cereus NCTC6349) [mg/L] | MIC [1] [mg/L] | MIC50 [1] [mg/L] | MIC80 [1] [mg/L] | MIC [2] [mg/L] | MIC50 [2] [mg/L] | MIC80 [2] [mg/L] | MIC [3] [mg/L] | MIC50 [3] [mg/L] | MIC80 [3] [mg/L] | MIC [4] [mg/L] | MIC50 [4] [mg/L] | MIC80 [4] [mg/L] | MIC [5] [mg/L] | MIC50 [5] [mg/L] | MIC80 [5] [mg/L] | MIC [6] [mg/L] | MIC50 [6] [mg/L] | other results
1 | CC(C)c1cc(Cl)ccc1-c1cc(C(=O)O)sc1-c1ccc(Cl)cc1C(C)C [DNM0566, 4,5-Bis(4-chloro-2-isopropylphenyl)thiophene-2-carboxylic acid] | ≤ 0.25 | ≤ 0.25 | ≤ 0.25 | 0.5 (≈ 1.15 µM) | 0.5 (≈ 1.15 µM) | 0.5 (≈ 1.15 µM) | 0.5 (≈ 1.15 µM) | 0.25 (≈ 0.577 µM) | 0.25 (≈ 0.577 µM) | ≤ 0.25 | ≤ 0.25 | ≤ 0.25 | 0.5 (≈ 1.15 µM) | 0.25 (≈ 0.577 µM) | 0.25 (≈ 0.577 µM) | 0.5 (≈ 1.15 µM) | 0.5 (≈ 1.15 µM) | 0.5 (≈ 1.15 µM) | ≤ 0.25 | ≤ 0.25 | MIC80 [6]: ≤ 0.25 mg/L; MIC [7]: ≤ 0.25 mg/L; MIC50 [7]: ≤ 0.25 mg/L; MIC80 [7]: ≤ 0.25 mg/L; MIC [8]: 2 mg/L (≈ 4.61 µM); MIC50 [8]: 1 mg/L (≈ 2.31 µM); MIC80 [8]: 2 mg/L (≈ 4.61 µM); MIC [9]: 1 mg/L (≈ 2.31 µM); MIC50 [9]: 1 mg/L (≈ 2.31 µM); MIC80 [9]: 1 mg/L (≈ 2.31 µM); MIC [10]: ≤ 0.25 mg/L; MIC50 [10]: ≤ 0.25 mg/L; MIC80 [10]: ≤ 0.25 mg/L
2 | CCCCc1cccc(-c2cc(-c3nnn[nH]3)sc2Cc2ccc(Cl)cc2)c1 [DNM0606, 5-(4-(3-Butylphenyl)-5-(4-chlorobenzyl)thiophen-2-yl)-1H-tetrazole] | 0.5 (≈ 1.22 µM) | 0.5 (≈ 1.22 µM) | 0.5 (≈ 1.22 µM) | 1 (≈ 2.45 µM) | 1 (≈ 2.45 µM) | 1 (≈ 2.45 µM) | 1 (≈ 2.45 µM) | 1 (≈ 2.45 µM) | 1 (≈ 2.45 µM) | ≤ 0.25 | ≤ 0.25 | ≤ 0.25 | 0.5 (≈ 1.22 µM) | 0.5 (≈ 1.22 µM) | 0.5 (≈ 1.22 µM) | 0.5 (≈ 1.22 µM) | 0.5 (≈ 1.22 µM) | 0.5 (≈ 1.22 µM) | 0.5 (≈ 1.22 µM) | 0.5 (≈ 1.22 µM) | MIC80 [6]: 0.5 mg/L (≈ 1.22 µM); MIC [7]: 0.5 mg/L (≈ 1.22 µM); MIC50 [7]: 0.5 mg/L (≈ 1.22 µM); MIC80 [7]: 0.5 mg/L (≈ 1.22 µM); MIC [8]: 4 mg/L (≈ 9.78 µM); MIC50 [8]: 2 mg/L (≈ 4.89 µM); MIC80 [8]: 4 mg/L (≈ 9.78 µM); MIC [9]: 1 mg/L (≈ 2.45 µM); MIC50 [9]: 0.5 mg/L (≈ 1.22 µM); MIC80 [9]: 0.5 mg/L (≈ 1.22 µM); MIC [10]: ≤ 0.25 mg/L; MIC50 [10]: ≤ 0.25 mg/L; MIC80 [10]: ≤ 0.25 mg/L
